Key:
[1] = tested on: dd-male mice; experiment: Analgetic action, Haffner's Method (tail root clamping); type: in vivo; settings: Mus musculus, ip, abdominal cavity, hydrochloride
Protocol: In accordance with a usual manner, dd-male mice of 14 to 22 g were classified into groups, each having 10 mice, compounds to be tested in various concentrations were given to each mouse and then clamped a tail root of the mouse with use of Koffer clamps in each time period of having lapsed 15, 30, 45 and 60 minutes from the dosage to measure an analgetic action of the compounds by judging as "negative" when the tested mouse cries or looks back.
Further the number of deaths was counted in each 10 mice group after having lapsed 2 hours from dosage of each testing agent into abdominal cavity and then ED50, LD50 and 95% confidence limit were calculated based on the Richfield and Wilcoxson Methods to compare the results obtained on the agents.

[2] = tested on: Wister type male rats; experiment: Antipyretic Action (rectal body temperature); type: in vivo
Protocol: Wister type male rats of 100 to 140 g were classified into groups, each having 4 to 5 rats. The rats were abstrained from food for 1 day and then each rat was entered in each cage. The body temperature was measured under a constant room temperature through the rectum. This body temperature measurement was carried out in 3 times before a dosage of agents as well as after lapsed 30, 60, 90, 120 and 150 minutes from the dosage.
Judgements have been given based on following 5 measures.

[3] = tested on: dd-male mice; experiment: Analgetic action, Acetic Acid Stretching Method; type: in vivo; settings: Mus musculus, po, orally given 30 minutes before acetic acid, hydrochloride
Protocol: (ii) Acetic Acid Stretching Method
The dd-male mice of 17 to 23 g were classified into groups, each having 10 mice, and 0.7% aqueous solution of acetic acid was dosed into abdominal cavity for each mouse in a ratio of 10 ml/kg and then a stretching condition was observed over 5 minutes of having lapsed 10 to 15 minutes from the dosage. The test was repeated 4 times to obtain total measured value and an inhibition ratio was measured from number of stretching actions. A judgement has been given in "Yes" or "No" system.
According to the Richfield and Wilcoxson Methods, ED50, LD50 and 95% confidence limit were calculated and compared the same for each testing agents and Control.
Each testing agent and control was orally given 30 minutes before the dosage of the acetic acid in a ratio of 100 mg/10 ml/kg.

[4] = Acute Toxity, mouse; settings: in vivo
Protocol: (§1) The dd-type 5 weeks male mice of 21 to 26 g and Wister type 5 weeks male rats of 110 to 150 g were classified into groups, each having 10 mice or rats. After having given testing agents to the mice and rats, general conditions, number of deaths in each day and body weight changes have been observed over 7 days. An LD50 value was calculated based on total number of deaths during the 7 days testing time period, in accordance with the Richfield-Wilcoxson Method. The surviving animals were dissected to visually observe internal organs thereof.

[5] = Acute Toxity, rat; settings: in vivo
Protocol: as §1

[6] = tested on: dd-type male mice; experiment: Effect on Sleep (pentobarbital sleeping time); type: in vivo; settings: pentobarbital 40 mg/kg
Protocol: The dd-type male mice of 16 to 24 g were classified into groups, each having 10 mice. To each mouse, a testing agent was dosed through abdominal cavity and after having lapsed 30 minutes from the dosage, 40 mg/kg of pentobarbital was also dosed through abdominal cavity to measure a time of sleeping period. The sleeping time in question designates a time period, wherein a facing reflex disappears. Judgements were given based on following 7 measures.

[7] = tested on: dd-type male mice; experiment: Effect on Sleep (pentobarbital sleeping time); type: in vivo; settings: pentobarbital 40 mg/kg; remark: listed apart in the source
[8] = in abdominal cavity 50 mg/Kg, hydrochloride
[9] = intravenous injectional dosage, 7 days
[10] = ip, in abdominal cavity, 7 days
[11] = in abdominal cavity 25 mg/Kg (control)

Compound	ED50 [1] [mg/kg]	Antipyretic Action [2, 8]	ED50 [3] [mg/kg]	LD50 at 168 h [4, 9] [mg/kg]	LD50 at 168 h [4, 10] [mg/kg]	LD50 at 168 h ([4]; oral dosage, 7 days) [mg/kg]	LD50 at 168 h [5, 9] [mg/kg]	LD50 at 168 h ([5]; oral dosage, 7 days) [mg/kg]	Sleep Incrementing Action ([6]; in abdominal cavity 50 mg/Kg)	Sleep Incrementing Action ([7]; oral dosage 100 mg/Kg)	Antipyretic Action [2, 11]	Sleep Incrementing Action [6, 11]	Sleep Incrementing Action ([7]; oral dosage 50 mg/Kg (control))	LD50 at 168 h ([4]; ip) [mg/kg]	LD50 at 168 h ([4]; po) [mg/kg]	LD50 at 168 h ([5]; po) [mg/kg]
CN1CCN(CCCC(=O)c2ccc(F)cc2)Cc2ccccc2C1c1ccccc1 (stereo not drawn) [Compound I-c, 5-[3-(p-fluorobenzoyl)propyl]-1,2,3,4,5,6-hexahydro-1-phenyl-2-methyl-2,5-benzodiazocine]	44.2	++ (showing decrease of 1° to 2 °C and obtaining at least one result of a notifiable difference of P<1%)	5.7	29	208	1700	23.8	> 4000	+++ (sleeping time was extended by 60 minutes or more in comparison with control)	+++ (sleeping time was extended by 60 minutes or more in comparison with control)	–	–	–	–	–	–
CN1CCOC(c2ccccc2)c2ccccc2C1 (stereo not drawn) [Nefopam, reference compound]	–	–	–	36.8	72.4	356	18	595	–	–	++ (showing decrease of 1° to 2 °C and obtaining at least one result of a notifiable difference of P<1%)	-- (sleeping time was shortened by 30 to 60 minutes in comparison with control)	-- (sleeping time was shortened by 30 to 60 minutes in comparison with control)	–	–	–
COc1ccc(C2NCCN(CCCC(=O)c3ccc(F)cc3)Cc3ccccc32)cc1 (stereo not drawn) [Compound I-f, 5-[3-(p-fluorobenzoyl)propyl]-1,2,3,4,5,6-hexahydro-1-(p-methoxyphenyl)-2,5-benzodiazocine]	30.7	++ (showing decrease of 1° to 2 °C and obtaining at least one result of a notifiable difference of P<1%)	11.5	35.9	109	340	19.8	2890	+++ (sleeping time was extended by 60 minutes or more in comparison with control)	+++ (sleeping time was extended by 60 minutes or more in comparison with control)	–	–	–	–	–	–
c1ccc(C2NCCN(CC3CC3)Cc3ccccc32)cc1 (stereo not drawn) [Compound I-d, 5-cyclopropylmethyl-1,2,3,4,5,6-hexahydro-1-phenyl-2,5-benzodiazocine]	17.1	++ (showing decrease of 1° to 2 °C and obtaining at least one result of a notifiable difference of P<1%)	13.5	18	51.6	215	17.8	485	-- (sleeping time was shortened by 30 to 60 minutes in comparison with control)	-- (sleeping time was shortened by 30 to 60 minutes in comparison with control)	–	–	–	–	–	–
CCOC(=O)/C=C/C(=O)Nc1ccc(CCN2CCNC(c3ccccc3)c3ccccc3C2)cc1 (stereo not drawn) [Compound I-e, [5(E)]-ethyl-4-[[4-[2-(1,2,3,4,5,6-hexahydro-1-phenyl-2,5-benzodiazocine)-5-yl]ethyl]phenyl]amino-4-oxo-2-butenoate]	80.3	++ (showing decrease of 1° to 2 °C and obtaining at least one result of a notifiable difference of P<1%)	61.1	–	–	–	–	–	-- (sleeping time was shortened by 30 to 60 minutes in comparison with control)	++ (sleeping time was extended by 30 to 60 minutes in comparison with control)	–	–	–	> 200	938	> 5000
COc1ccc(C2c3ccccc3CN(CCCC(=O)c3ccc(F)cc3)CCN2C)cc1 (stereo not drawn) [Compound I-a, 5-[3-(p-fluorobenzoyl)propyl]-1,2,3,4,5,6-hexahydro-1-(p-methoxyphenyl)-2-methyl-2,5-benzodiazocine]	18.4	++ (showing decrease of 1° to 2 °C and obtaining at least one result of a notifiable difference of P<1%)	40.5	30.1	179	1500	20	3500	++ (sleeping time was extended by 30 to 60 minutes in comparison with control)	+++ (sleeping time was extended by 60 minutes or more in comparison with control)	–	–	–	–	–	–
COc1ccc(CCN2CCN(C)C(c3ccc(OC)cc3)c3ccccc3C2)cc1 (stereo not drawn) [Compound I-b, 5-(p-methoxyphenethyl)-1,2,3,4,5,6-hexahydro-1-(p-methoxyphenyl)-2-methyl-2,5-benzodiazocine]	26.2	++ (showing decrease of 1° to 2 °C and obtaining at least one result of a notifiable difference of P<1%)	48.5	33	124	623	20.7	4090	+++ (sleeping time was extended by 60 minutes or more in comparison with control)	+++ (sleeping time was extended by 60 minutes or more in comparison with control)	–	–	–	–	–	–
